# Measurements taken from US20240051946A1, “TARGETED PROTEIN DEGRADATION OF PARP14 FOR USE IN THERAPY” (Ribon Therapeutics, Inc., priority 2022, published 2024).
# Target: T1, catalytic domain of human PARP14 (residues 1611 to 1801) with NanoLuc tag (Homo sapiens, UniProt Q460N5)
# T1 construct: expressed in transfected cells; host or cells: HEK-293T cells (ATCC), plasmid pRTX240 in pcDNA3.1(-)
# T1 sequence (Q460N5 1611-1801): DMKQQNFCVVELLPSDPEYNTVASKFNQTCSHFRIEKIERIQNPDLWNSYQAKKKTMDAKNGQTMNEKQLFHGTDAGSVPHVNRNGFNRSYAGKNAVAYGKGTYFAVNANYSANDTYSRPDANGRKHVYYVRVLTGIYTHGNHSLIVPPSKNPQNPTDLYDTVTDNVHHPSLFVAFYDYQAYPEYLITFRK
# Test: NanoLuc assay for the degradation of PARP14
# Format: cell-based
# Conditions: Assay A; NanoLuc-PARP14 overexpressed in HEK-293T cells; 2 hours at 37 degrees; luminescence
# Procedure: The catalytic domain of human PARP14 (residues 1611 to 1801, GenBank Accession No. NM_017554) was inserted into the pcDNA3.1(−) vector. The insert also contained a NanoLuc tag on the N terminus of the PARP14 protein.
# Degradation of PARP14 protein was assessed using measurement of the NanoLuc tag as proxy for the PARP14 protein. PARP14 with NanoLuc tag was overexpressed in […] cells (ATCC) using the plasmid described in Table 1. Plasmid DNA was diluted in empty vector DNA then added to 1.163 mL of phenol red free OptiMEM (Thermo Fisher). Plasmid DNA concentrations used in each assay described in Table 1. The plasmid DNA was mixed with 78.5 μL of Fugene HD (Promega) and allowed to incubate 5 minutes.
# Next, 1.125 mL were added to 10 million 293T cells in DMEM (Thermo Fisher) supplemented with 10% FBS (VWR) and 1× Glutamax (Gibco). The transfection was incubated for 24 hrs at 37 degrees in an incubator supplemented with 5% CO2. The cells were then trypsinized and brought up in phenol red free OptiMEM media. Transfected HEK-293T cells were diluted to […] and then added to assay plate (Corning 3574) using a Multidrop (Thermo Fisher) to add 40 μL per well of the 384 well plate, resulting in 5,000 cells per well. 40 nL of a dose response curve diluted in DMSO of each test compound was added to the cell plate using a Mosquito (TTP Labtech) and the plate was incubated at 37 degrees for 2 hours. Assay plate was brought to room temperature then 20 μL per well of NanoGlo (Promega) was added to the plate. Luminescence was measured on an Envision (Perkin Elmer).
# The average DMSO was calculated from 32 wells containing 0.1% DMSO only in columns 12 and 24 of the assay plate. The % of DMSO values were calculated as described below: […]
# The % of DMSO values were plotted as a function of compound concentration and the following 4-parameter fit was applied to derive the DC50 values:
# where top, bottom, and Hill Coefficient are allowed to float. Y is the % of DMSO and X is the compound concentration.
# DC50 data for the Example compounds is provided below in Table 2 (“+” is <0.1 μM; “++” is ≥0.1 μM and <1 μM; and “+++” is ≥1 μM).
row,SMILES,DC50 [nM]
1,"O=C(CN1CCC(SCc2nc3cc(OCC4CCOCC4)cc(F)c3c(=O)[nH]2)CC1)NCCCCN1CCC(c2cccc(NC3CCC(=O)NC3=O)c2)CC1 (centres unmarked) [Example 13, N-(4-(4-(3-((2,6-dioxopiperidin-3-yl)amino)phenyl)piperidin-1-yl)butyl)-2-(4-(((5-fluoro-4-oxo-7-((tetrahydro-2H-pyran-4-yl)methoxy)-3,4-dihydroquinazolin-2-yl)methyl)thio)piperidin-1-yl)acetamide]",< 100
2,"CC(=O)N1CCC(COc2cc(F)c3c(=O)[nH]c(CSC4CCN(CC#Cc5ccc6c(c5)C(=O)N(C5CCC(=O)NC5=O)C6=O)CC4)nc3c2)CC1 (centres unmarked) [Example 34, 5-(3-(4-(((7-((1-acetylpiperidin-4-yl)methoxy)-5-fluoro-4-oxo-3,4-dihydroquinazolin-2-yl)methyl)thio)piperidin-1-yl)prop-1-yn-1-yl)-2-(2,6-dioxopiperidin-3-yl)isoindoline-1,3-dione]",< 100
3,"CC(=O)N1CCC(COc2cc(F)c3c(=O)[nH]c(CSC4CCN(CC(=O)N5CCC(c6ccc(N7CCN(C8CCC(=O)NC8=O)C7=O)cc6)CC5)CC4)nc3c2)CC1 (centres unmarked) [Example 18, 3-(3-(4-(1-(2-(4-(((7-((1-acetylpiperidin-4-yl)methoxy)-5-fluoro-4-oxo-3,4-dihydroquinazolin-2-yl)methyl)thio)piperidin-1-yl)acetyl)piperidin-4-yl)phenyl)-2-oxoimidazolidin-1-yl)piperidine-2,6-dione]",< 100
4,"CC(=O)N1CCC(COc2cc(F)c3c(=O)[nH]c(CCC4CCN(CC(=O)N5CCC(CN6CCN(c7cccc8c7C(=O)N(C7CCC(=O)NC7=O)C8=O)CC6)CC5)CC4)nc3c2)CC1 (centres unmarked) [Example 27, 4-(4-((1-(2-(4-(2-(7-((1-acetylpiperidin-4-yl)methoxy)-5-fluoro-4-oxo-3,4-dihydroquinazolin-2-yl)ethyl)piperidin-1-yl)acetyl)piperidin-4-yl)methyl)piperazin-1-yl)-2-(2,6-dioxopiperidin-3-yl)isoindoline-1,3-dione]",< 100
5,"CC(=O)N1CCC(COc2cc(F)c3c(=O)[nH]c(CSC4CCN(CC#Cc5cccc(N6CCC(=O)NC6=O)c5)CC4)nc3c2)CC1 [Example 38, 1-(3-(3-(4-(((7-((1-acetylpiperidin-4-yl)methoxy)-5-fluoro-4-oxo-3,4-dihydroquinazolin-2-yl)methyl)thio)piperidin-1-yl)prop-1-yn-1-yl)phenyl)dihydropyrimidine-2,4(1H,3H)-dione]",< 100
6,"O=C(CN1CCC(SCc2nc3cc(OCC4CCOCC4)cc(F)c3c(=O)[nH]2)CC1)NCCCCNC(=O)c1cccc(N2CCC(=O)NC2=O)c1 [Example 4, 3-(2,4-dioxotetrahydropyrimidin-1(2H)-yl)-N-(4-(2-(4-(((5-fluoro-4-oxo-7-((tetrahydro-2H-pyran-4-yl)methoxy)-3,4-dihydroquinazolin-2-yl)methyl)thio)piperidin-1-yl)acetamido)butyl)benzamide]",100 to 1000
7,"CC(=O)N1CCC(COc2cc(F)c3c(=O)[nH]c(CCC4CCN(C(=O)C5CCN(CC6CCN(c7cccc8c7C(=O)N(C7CCC(=O)NC7=O)C8=O)CC6)CC5)CC4)nc3c2)CC1 (centres unmarked) [Example 26, 4-(4-((4-(4-(2-(7-((1-acetylpiperidin-4-yl)methoxy)-5-fluoro-4-oxo-3,4-dihydroquinazolin-2-yl)ethyl)piperidine-1-carbonyl)piperidin-1-yl)methyl)piperidin-1-yl)-2-(2,6-dioxopiperidin-3-yl)isoindoline-1,3-dione]",< 100
8,"O=C(CN1CCC(SCc2nc3cc(OCC4CCOCC4)cc(F)c3c(=O)[nH]2)CC1)NCCCCCCNC(=O)c1cccc(N2CCC(=O)NC2=O)c1 [Example 3, 3-(2,4-dioxotetrahydropyrimidin-1(2H)-yl)-N-(6-(2-(4-(((5-fluoro-4-oxo-7-((tetrahydro-2H-pyran-4-yl)methoxy)-3,4-dihydroquinazolin-2-yl)methyl)thio)piperidin-1-yl)acetamido)hexyl)benzamide]",< 100
